Measurements taken from patent US12048709B2 (scPharmaceuticals Inc., priority 2019, dated 2024).
Read-outs that look alike come from different tables or passages of the source.

Columns and labels:
[1] = not given; remark: listed apart in the source
[2] = Study 4
Description: (§1) Samples were tumbled for 48 hours at ambient conditions and protected from light.
A full factorial DOE study was performed to determine the optimal amounts of NMP, benzyl alcohol and buffer (tromethamine) required to produce the highest solubility. Any potential synergistic effects stemming from various excipient combinations were also investigated.

[3] = for Apparent pH: 2% Benzyl Alcohol
Description: as §1

[4] = 200 mM Sodium Phosphate, target pH 6.0, t24 h
[5] = 200 mM Tromethamine/HCl, target pH 8.5, t2 h

SMILES: NS(=O)(=O)c1cc(C(=O)O)c(NCc2ccco2)cc1Cl [furosemide, 4-chloro-2-(furan-2-ylmethylamino)-5-sulfamoyl-benzoic acid]
- Osmolarity (200 mM Citrate, target pH 6.0, t2 h): 516 mOsm/kg
- Osmolarity (200 mM Citrate, target pH 6.0, t24 h): 533 mOsm/kg
- Osmolarity (200 mM Citrate, target pH 6.0, t48 h): 557 mOsm/kg
- Osmolarity (200 mM Citrate, target pH 7.4, t2 h): 488 mOsm/kg
- Osmolarity (200 mM Citrate, target pH 7.4, t24 h): 484 mOsm/kg
- Osmolarity (200 mM Citrate, target pH 7.4, t48 h): 549 mOsm/kg
- Osmolarity (200 mM Histidine/HCl, target pH 6.0, t2 h): 441 mOsm/kg
- Osmolarity (200 mM Histidine/HCl, target pH 6.0, t24 h): 392 mOsm/kg
- Osmolarity (200 mM Histidine/HCl, target pH 6.0, t48 h): 477 mOsm/kg
- Osmolarity (200 mM Histidine/HCl, target pH 7.4, t2 h): 588 mOsm/kg
- Osmolarity (200 mM Histidine/HCl, target pH 7.4, t24 h): 584 mOsm/kg
- Osmolarity (200 mM Histidine/HCl, target pH 7.4, t48 h): 616 mOsm/kg
- Osmolarity (200 mM Histidine/HCl, target pH 8.5, t2 h): 553 mOsm/kg
- Osmolarity (200 mM Histidine/HCl, target pH 8.5, t24 h): 558 mOsm/kg
- Osmolarity (200 mM Histidine/HCl, target pH 8.5, t48 h): 678 mOsm/kg
- Osmolarity (200 mM Potassium Phosphate, target pH 6.0, t2 h): 384 mOsm/kg
- Osmolarity (200 mM Potassium Phosphate, target pH 6.0, t24 h): 383 mOsm/kg
- Osmolarity (200 mM Potassium Phosphate, target pH 6.0, t48 h): 376 mOsm/kg
- Osmolarity (200 mM Potassium Phosphate, target pH 7.4, t2 h): 462 mOsm/kg
- Osmolarity (200 mM Potassium Phosphate, target pH 7.4, t24 h): 471 mOsm/kg
- Osmolarity (200 mM Potassium Phosphate, target pH 7.4, t48 h): 481 mOsm/kg
- Osmolarity (200 mM Potassium Phosphate, target pH 8.5, t2 h): 487 mOsm/kg
- Osmolarity (200 mM Potassium Phosphate, target pH 8.5, t24 h): 497 mOsm/kg
- Osmolarity (200 mM Potassium Phosphate, target pH 8.5, t48 h): 423 mOsm/kg
- Osmolarity (200 mM Sodium Phosphate, target pH 6.0, t2 h): 388 mOsm/kg
- Apparent pH [4]: 5.1
- Osmolarity [4]: 399 mOsm/kg
- Osmolarity (200 mM Sodium Phosphate, target pH 6.0, t48 h): 393 mOsm/kg
- Osmolarity (200 mM Sodium Phosphate, target pH 7.4, t2 h): 330 mOsm/kg
- Osmolarity (200 mM Sodium Phosphate, target pH 7.4, t24 h): 310 mOsm/kg
- Osmolarity (200 mM Sodium Phosphate, target pH 7.4, t48 h): 310 mOsm/kg
- Osmolarity (200 mM Sodium Phosphate, target pH 8.5, t2 h): 282 mOsm/kg
- Osmolarity (200 mM Sodium Phosphate, target pH 8.5, t24 h): 267 mOsm/kg
- Osmolarity (200 mM Sodium Phosphate, target pH 8.5, t48 h): 285 mOsm/kg
- Osmolarity (200 mM Tromethamine, target pH 6.0, t2 h): 403 mOsm/kg
- Osmolarity (200 mM Tromethamine, target pH 6.0, t24 h): 406 mOsm/kg
- Osmolarity (200 mM Tromethamine, target pH 6.0, t48 h): 446 mOsm/kg
- Osmolarity (200 mM Tromethamine, target pH 7.4, t2 h): 434 mOsm/kg
- Osmolarity (200 mM Tromethamine, target pH 7.4, t24 h): 481 mOsm/kg
- Osmolarity (200 mM Tromethamine, target pH 7.4, t48 h): 482 mOsm/kg
- Osmolarity (200 mM Tromethamine, target pH 8.5, t2 h): 403 mOsm/kg
- Osmolarity (200 mM Tromethamine, target pH 8.5, t24 h): 347 mOsm/kg
- Osmolarity (200 mM Tromethamine, target pH 8.5, t48 h): 433 mOsm/kg
- Osmolarity (200 mM Tromethamine/HCl, target pH 6.0, t2 h): 121 mOsm/kg
- Osmolarity (200 mM Tromethamine/HCl, target pH 6.0, t24 h): 114 mOsm/kg
- Osmolarity (200 mM Tromethamine/HCl, target pH 6.0, t48 h): 127 mOsm/kg
- Osmolarity (200 mM Tromethamine/HCl, target pH 7.4, t2 h): 232 mOsm/kg
- Osmolarity (200 mM Tromethamine/HCl, target pH 7.4, t24 h): 215 mOsm/kg
- Osmolarity (200 mM Tromethamine/HCl, target pH 7.4, t48 h): 233 mOsm/kg
- Apparent pH [5]: 8.8
- Osmolarity [5]: 177 mOsm/kg
- Osmolarity (200 mM Tromethamine/HCl, target pH 8.5, t24 h): 257 mOsm/kg
- Osmolarity (200 mM Tromethamine/HCl, target pH 8.5, t48 h): 252 mOsm/kg
- Osmolarity ([1]; ~50 mM Potassium Phosphate, target pH 6.0, t2 h): 108 mOsm/Kg
- Osmolarity ([1]; ~50 mM Potassium Phosphate, target pH 6.0, t24 h): 105 mOsm/Kg
- Osmolarity ([1]; ~50 mM Potassium Phosphate, target pH 6.0, t48 h): 115 mOsm/Kg
- Osmolarity ([1]; ~50 mM Potassium Phosphate, target pH 7.4, t2 h): 193 mOsm/Kg
- Osmolarity ([1]; ~50 mM Potassium Phosphate, target pH 7.4, t24 h): 190 mOsm/Kg
- Osmolarity ([1]; ~50 mM Potassium Phosphate, target pH 7.4, t48 h): 213 mOsm/Kg
- Osmolarity ([1]; ~50 mM Potassium Phosphate, target pH 8.5, t2 h): 265 mOsm/Kg
- Osmolarity ([1]; ~50 mM Potassium Phosphate, target pH 8.5, t24 h): 255 mOsm/Kg
- Osmolarity ([1]; ~50 mM Potassium Phosphate, target pH 8.5, t48 h): 283 mOsm/Kg
- Osmolarity ([1]; ~50 mM Sodium Phosphate, target pH 6.0, t2 h): 212 mOsm/Kg
- Osmolarity ([1]; ~50 mM Sodium Phosphate, target pH 6.0, t24 h): 118 mOsm/Kg
- Osmolarity ([1]; ~50 mM Sodium Phosphate, target pH 6.0, t48 h): 141 mOsm/Kg
- Osmolarity ([1]; ~50 mM Sodium Phosphate, target pH 7.4, t2 h): 232 mOsm/Kg
- Osmolarity ([1]; ~50 mM Sodium Phosphate, target pH 7.4, t24 h): 233 mOsm/Kg
- Osmolarity ([1]; ~50 mM Sodium Phosphate, target pH 7.4, t48 h): 237 mOsm/Kg
- Osmolarity ([1]; ~50 mM Sodium Phosphate, target pH 8.5, t2 h): 241 mOsm/Kg
- Osmolarity ([1]; ~50 mM Sodium Phosphate, target pH 8.5, t24 h): 242 mOsm/Kg
- Osmolarity ([1]; ~50 mM Sodium Phosphate, target pH 8.5, t48 h): 276 mOsm/Kg
- Osmolarity ([1]; ~50 mM Tromethamine/HCl, target pH 6.0, t2 h): 124 mOsm/Kg
- Osmolarity ([1]; ~50 mM Tromethamine/HCl, target pH 6.0, t24 h): 129 mOsm/Kg
- Osmolarity ([1]; ~50 mM Tromethamine/HCl, target pH 6.0, t48 h): 133 mOsm/Kg
- Osmolarity ([1]; ~50 mM Tromethamine/HCl, target pH 7.4, t2 h): 165 mOsm/Kg
- Osmolarity ([1]; ~50 mM Tromethamine/HCl, target pH 7.4, t24 h): 181 mOsm/Kg
- Osmolarity ([1]; ~50 mM Tromethamine/HCl, target pH 7.4, t48 h): 186 mOsm/Kg
- Osmolarity ([1]; ~50 mM Tromethamine/HCl, target pH 8.5, t2 h): 242 mOsm/Kg
- Osmolarity ([1]; ~50 mM Tromethamine/HCl, target pH 8.5, t24 h): 239 mOsm/Kg
- Osmolarity ([1]; ~50 mM Tromethamine/HCl, target pH 8.5, t48 h): 258 mOsm/Kg
- pH variability [2]: up to 0.3 pH units
- Apparent pH ([3]; 100 mM Tromethamine pH 5.0, 25% NMP, t2 h): 5.0
- Apparent pH ([3]; 100 mM Tromethamine pH 5.0, 25% NMP, t24 h): 4.6
- Apparent pH ([3]; 100 mM Tromethamine pH 5.0, 25% NMP, t48 h): 5.1
- Apparent pH ([3]; 100 mM Tromethamine pH = 4.0, 25% NMP, t2 h): 3.9
- Apparent pH ([3]; 100 mM Tromethamine pH = 4.0, 25% NMP, t24 h): 3.6
- Apparent pH ([3]; 100 mM Tromethamine pH = 4.0, 25% NMP, t48 h): 4.7
- pH variability ([3]; Study 6, pH 4.0 test samples): 0.7 units
